{
  "source": "ChEMBL document CHEMBL5331051",
  "about": "“Cationic, amphipathic small molecules based on a triazine-piperazine-triazine scaffold as a new class of antimicrobial agents” (Eur J Med Chem, 2022)",
  "key": {"[1]": {"tested_on": "Cell membrane", "assay": "Induction of outer membrane permeabilization in Escherichia coli KCTC 1682 assessed as increase in fluorescence intensity at 2 to 8 ug/ml by NPN staining based analysis", "conditions": "dose 2-8 µg/ml"}, "[2]": {"tested_on": "Erythrocyte", "assay": "Hemolytic activity in sheep RBC assessed as minimal hemolytic concentration causing 10% hemolysis incubated for 1 hr by ELISA", "format": "toxicity, cell-based, Ovis aries"}, "[3]": {"tested_on": "Enterococcus faecium", "assay": "Antibacterial activity against vancomycin-resistant Enterococcus faecium ATCC 51559 strain assessed as bacterial growth inhibition measured at 18 to 24 hrs by microdilution assay", "format": "functional", "conditions": "time 18-24 hrs"}, "[4]": {"tested_on": "Escherichia coli", "assay": "Antibacterial activity against Escherichia coli KCTC 1682 strain assessed as bacterial growth inhibition measured after 6 hrs in presence of trypsin by radial diffusion assay", "format": "functional, organism-based"}, "[5]": {"tested_on": "Escherichia coli", "assay": "Antibacterial activity against Escherichia coli KCTC 1682 strain assessed as bacterial growth inhibition measured after 6 hrs in presence of chymotrypsin by radial diffusion assay", "format": "functional, organism-based"}, "[6]": {"tested_on": "Escherichia coli", "assay": "Antibacterial activity against Escherichia coli KCTC 1682 strain assessed as bacterial growth inhibition measured after 6 hrs in presence of pepsin by radial diffusion assay", "format": "functional, organism-based"}, "[7]": {"tested_on": "Escherichia coli", "assay": "Antibacterial activity against Escherichia coli KCTC 1682 strain assessed as bacterial growth inhibition measured after 6 hrs in presence of proteinase K by radial diffusion assay", "format": "functional, organism-based"}, "[8]": {"tested_on": "Cell membrane", "assay": "Induction of cell membrane depolarization in Staphylococcus aureus assessed as increase in fluorescence intensity at 2 times MIC by DiSC3(5) dye based fluorescence assay"}, "[9]": {"tested_on": "Cell membrane", "assay": "Induction of cell membrane depolarization in Staphylococcus aureus assessed as fluorescence intensity at 2 to 16 times MIC by DiSC3(5) dye based fluorescence assay", "format": "subcellular"}, "[10]": {"tested_on": "Cell membrane", "assay": "Induction of cell membrane depolarization in Staphylococcus aureus assessed as increase in fluorescence intensity at 2 times MIC by SYTOX green staining based analysis"}, "[11]": {"tested_on": "Cell membrane", "assay": "Induction of inner membrane permeabilization in Escherichia coli ML-35 assessed as increase in […] at 2 times MIC by ONPG staining based analysis"}, "[12]": {"tested_on": "Cell membrane", "assay": "Induction of cell membrane damage in Escherichia coli KCTC 1682 assessed as increase in fluorescent intensity at 2 times MIC incubated for 30 mins by PI staining based flow cytometry assay (reference value: 9.79 %)", "format": "subcellular"}, "[13]": {"tested_on": "Staphylococcus aureus", "assay": "Antibacterial activity against methicillin-resistant Staphylococcus aureus CCARM 3089 strain assessed as bacterial growth inhibition measured at 18 to 24 hrs by microdilution assay", "format": "functional", "conditions": "time 18-24 hrs"}, "[14]": {"tested_on": "Staphylococcus aureus", "assay": "Antibacterial activity against methicillin-resistant Staphylococcus aureus CCARM 3090 strain assessed as bacterial growth inhibition measured at 18 to 24 hrs by microdilution assay", "format": "functional", "conditions": "time 18-24 hrs"}, "[15]": {"tested_on": "Staphylococcus aureus", "assay": "Antibacterial activity against methicillin-resistant Staphylococcus aureus CCARM 3095 strain assessed as bacterial growth inhibition measured at 18 to 24 hrs by microdilution assay", "format": "functional", "conditions": "time 18-24 hrs"}, "[16]": {"tested_on": "Pseudomonas aeruginosa", "assay": "Antibacterial activity against multidrug-resistant Pseudomonas aeruginosa CCARM 2095 strain assessed as bacterial growth inhibition measured at 18 to 24 hrs by microdilution assay", "format": "functional", "conditions": "time 18-24 hrs"}, "[17]": {"tested_on": "Pseudomonas aeruginosa", "assay": "Antibacterial activity against multidrug-resistant Pseudomonas aeruginosa CCARM 2109 strain assessed as bacterial growth inhibition measured at 18 to 24 hrs by microdilution assay", "format": "functional", "conditions": "time 18-24 hrs"}, "[18]": {"tested_on": "Pseudomonas aeruginosa", "assay": "Antibacterial activity against multidrug-resistant Pseudomonas aeruginosa CCARM 2095 strain assessed as bacterial growth inhibition by checkerboard assay", "format": "functional"}, "[19]": {"tested_on": "Pseudomonas aeruginosa", "assay": "Synergistic antibacterial activity against multidrug-resistant Pseudomonas aeruginosa CCARM 2095 strain assessed as bacterial growth inhibition by checkerboard assay", "format": "functional"}, "[20]": {"tested_on": "Pseudomonas aeruginosa", "assay": "Additive antibacterial activity against multidrug-resistant Pseudomonas aeruginosa CCARM 2095 strain assessed as bacterial growth inhibition by checkerboard assay", "format": "functional"}, "[21]": {"tested_on": "Pseudomonas aeruginosa", "assay": "Bactericidal activity against multidrug-resistant Pseudomonas aeruginosa CCARM 2095 measured after 24 hrs by time-kill kinetics assay", "format": "functional, organism-based"}, "[22]": {"tested_on": "Pseudomonas aeruginosa", "assay": "Bacteriostatic activity against multidrug-resistant Pseudomonas aeruginosa CCARM 2095 measured after 24 hrs by time-kill kinetics assay", "format": "functional, organism-based"}},
  "note": "Active and inactive are the calls of the source. The calls are words filed in the database; no cut-off is given here.",
  "data": [
    {"molecule": "CC[C@H](C)[C@H](NC(=O)CN)C(=O)NCC(=O)N[C@@H](C)C(=O)N[C@H](C(=O)N[C@@H](CC(C)C)C(=O)N[C@@H](CCCCN)C(=O)N[C@H](C(=O)N[C@@H](CC(C)C)C(=O)N[C@H](C(=O)N[C@H](C(=O)NCC(=O)N[C@@H](CC(C)C)C(=O)N1CCC[C@H]1C(=O)N[C@@H](C)C(=O)N[C@@H](CC(C)C)C(=O)N[C@H](C(=O)N[C@@H](CO)C(=O)N[C@@H](Cc1c[nH]c2ccccc12)C(=O)N[C@H](C(=O)N[C@@H](CCCCN)C(=O)N[C@@H](CCCNC(=N)N)C(=O)N[C@@H](CCCCN)C(=O)N[C@@H](CCCNC(=N)N)C(=O)N[C@@H](CCC(N)=O)C(=O)N[C@@H](CCC(N)=O)C(N)=O)[C@@H](C)CC)[C@@H](C)CC)[C@@H](C)O)[C@@H](C)O)C(C)C)C(C)C", "note": "[MELITTIN]", "values": [
      {"measurement": "Activity", "setting": "[1]", "result": "Active"},
      {"measurement": "MHC", "setting": "[2]", "result": 3.2, "unit": "µM"},
      {"measurement": "MIC", "setting": "[3]", "result": 0.0056, "unit": "mM"},
      {"measurement": "Activity", "setting": "[4]", "result": "inactive"},
      {"measurement": "Activity", "setting": "[5]", "result": "inactive"},
      {"measurement": "Activity", "setting": "[6]", "result": "inactive"},
      {"measurement": "Activity", "setting": "[7]", "result": "inactive"},
      {"measurement": "Activity", "setting": "[8]", "result": "Active"},
      {"measurement": "Activity", "setting": "[9]", "result": "inactive"},
      {"measurement": "Activity", "setting": "[10]", "result": "Active"},
      {"measurement": "Activity", "setting": "[11]", "result": "Active"},
      {"measurement": "Flu intensity", "setting": "[12]", "result": 64.2, "unit": "%"}
    ]},
    {"molecule": "O=C(N[C@H](CO)[C@H](O)c1ccc([N+](=O)[O-])cc1)C(Cl)Cl", "note": "[CHLORAMPHENICOL]", "values": [
      {"measurement": "MIC", "setting": "[13]", "result": 3.16, "unit": "mM"},
      {"measurement": "MIC", "setting": "[14]", "result": "> 6.33", "unit": "mM"},
      {"measurement": "MIC", "setting": "[15]", "result": "> 6.33", "unit": "mM"},
      {"measurement": "MIC", "setting": "[16]", "result": 6.33, "unit": "mM"},
      {"measurement": "MIC", "setting": "[17]", "result": "> 6.33", "unit": "mM"},
      {"measurement": "MIC", "setting": "[3]", "result": 1.58, "unit": "mM"},
      {"measurement": "MIC", "setting": "[18]", "result": 1020, "unit": "µg/mL"},
      {"measurement": "MIC", "setting": "[19]", "result": 1020, "unit": "µg/mL"},
      {"measurement": "MIC", "setting": "[20]", "result": 1020, "unit": "µg/mL"},
      {"measurement": "Activity", "setting": "[21]", "result": "inactive"},
      {"measurement": "Activity", "setting": "[22]", "result": "inactive"}
    ]}
  ]
}
